Measurements reported in US7767824B2, “Heterocyclic compounds and cerebral function improvers containing the same as the active ingredient” (Zenyaku Kogyo Kabushiki Kaisha, priority 2001, dated 2010).
Marks after values point to notes of the source that are not given here.

Assays:
[1] = test system: scopolamine-induced amnesia of rats; experiment: Effects on scopolamine-induced amnesia, passive avoidance task (oral administration); type: in vivo, rat; details: 60 min before trial, scopolamine hydrobromide 2 mg/kg i.p., latency 24 h after shock, male Sprague Dawley rats; for inhibition in vivo at 0.01 mg/kg / inhibition in vivo at 1 mg/kg: Rattus norvegicus, po, read-out: Inhibitory rate (%)
From the text: Male rats of the Strague Dawley strain at 8 weeks of age (260±2 g body weight) were used for evaluation through passive avoidance task. The apparatus of passive avoidance task comprises illuminated and dark chambers which are separated from each other by a wall with a door. Floors are constituted by grids made of stainless steel; only the grid in the dark chamber is furnished with wiring for electrification.
Effected on the first and second days of testing was preparative training; each rat was placed in the illuminated chamber and left for 3 minutes to habituate to the apparatus. On the third day of testing, the rats were individually placed in the illuminated chamber and after entering the dark chamber, the door was closed and the floor grid was electrified to deliver electric shock (100 V, 0.4 mA, a period of 0.8 sec). In order to induce amnesia, scopolamine hydrobromide (2 mg/kg) was intraperitoneally injected 20 minutes before the electric shock was delivered. Retention in memory on the electric shock was tested 24 hours later; more specifically, retention in passive avoidance was measured in terms of a time interval (latency) from placement of each rat in the illuminated chamber to its entry into the dark chamber. The latency over 300 seconds was recorded as 300 seconds. Respective test compounds were suspended in an aqueous solution of 1% carboxymethyl cellulose and orally administered at a dose of 0.01 or 1 mg/kg 60 minutes before the trial.
Antiamnesic effects of the test compounds were evaluated by inhibitory rate (%) which is calculated by the following formula:
[formula] wherein T stands for latency and SC, administration of scopolamine hydrobromide. Experimental results are shown in the following table in which, as to each of the test compounds, only the dose showing higher inhibitory rate was indicated.

Molecule	inhibition in vivo at 0.01 mg/kg ([1]; dose 0.01 mg/kg p.o.)	melting point	also measured
Cc1ccc(CC2(Cc3ccc(C)cc3)C(=O)N=C3SC=CN32)cc1 [compound 4, 5,5-bis(4-methylbenzyl)imidazo[2,1-b]thiazol-6(5H)-one]	49.8%	> 300 °C	–
O=C1N=C2C3=C(C=CN2C12CCCC2)CCCC3 [compound 30, spiro[7,8,9,10-tetrahydroimidazo[2,1-a]isoquinolin-2(3H)-one-3,1′-cyclopentane]]	–	–	Inhibitory rate (%) ([1]; dose 1 mg/kg p.o.): 89.5** %
O=C1N=C2C=CC=CN2C12Cc1ccc(C(F)(F)F)cc1C2 (centres unmarked) [compound 26, spiro[imidazo[1,2-a]pyridin-2(3H)-one-3,2′-(5′-trifluoromethylindan)]]	–	–	Inhibitory rate (%) ([1]; dose 1 mg/kg p.o.): 74.3** %
O=C1N=C2SC=CN2C1(Cc1cccs1)Cc1cccs1 [compound 7, 5,5-bis(2-thienylmethyl)imidazo[2,1-b]thiazol-6(5H)-one]	–	286 °C (dec.)	–
O=C1N=C2c3ccccc3C=CN2C12CC=CC2 [compound 28, spiro[imidazo[2,1-a]isoquinolin-2 (3H)-one-3,1′-(3′-cyclopentene)]]	–	–	Inhibitory rate (%) ([1]; dose 0.01 mg/kg p.o.): 88.0** %
CC=CCC1(CC=CC)C(=O)N=C2N=CC=CN21 (centres unmarked) [compound 17, 3,3-di(2-butenyl)imidazo[1,2-a]pyrimidin-2(3H)-one]	54.4%	149.5 °C (dec.)	–
COc1ccc2c(c1)CC1(C2)C(=O)N=C2C=CC=CN21 (centres unmarked) [compound 19, spiro[imidazo[1,2-a]pyridin-2(3H)-one-3,2′-(5′-methoxyindan)]]	–	–	Inhibitory rate (%) ([1]; dose 1 mg/kg p.o.): 83.4** %
CCCCC1(CCCC)C(=O)N=C2CCCCN21 [compound 13, 3,3-dibutyl-5,6,7,8-tetrahydroimidazo[1,2-a]pyridin-2 (3H)-one]	–	35 to 40 °C	inhibition in vivo at 1 mg/kg ([1]; dose 1 mg/kg p.o.): 49.6%
O=C1N=C2SCCN2C1(Cc1ccccc1)Cc1ccccc1 [compound 9, 5,5-dibenzyl-2,3-dihydroimidazo[2,1-b]thiazol-6(5H)-one]	86.6%	233 to 236 °C	–
N#Cc1cccc2c1CC1(C2)C(=O)N=C2C=CC=CN21 (centres unmarked) [compound 21, spiro[imidazo[1,2-a]pyridin-2(3H)-one-3,2′-(4′-cyanoindan)]]	–	–	Inhibitory rate (%) ([1]; dose 1 mg/kg p.o.): 52.4* %
CC1=CN2C(=NC(=O)C2(Cc2ccccc2)Cc2ccccc2)S1 [compound 6, 5,5-dibenzyl-2-methylimidazo[2,1-b]thiazol-6(5H)-one]	66.6%	> 300 °C	–
O=C1N=C2c3ccccc3C=CN2C12CCCC2 [compound 31, spiro[imidazo[2,1-a]isoquinolin-2(3H)-one-3,1′-cyclopentane]]	–	–	Inhibitory rate (%) ([1]; dose 0.01 mg/kg p.o.): 56.7* %
O=C1N=C2SC=CN2C1(Cc1ccccc1)Cc1ccccc1 [compound 2, 5,5-dibenzylimidazo[2,1-b]thiazol-6(5H)-one]	86.9%	> 300 °C	–
O=C1N=C2c3ccccc3C=CN2C12Cc1ccccc1C2 [compound 22, spiro[imidazo[2,1-a]isoquinolin-2(3H)-one-3,2′-indan]]	–	–	Inhibitory rate (%) ([1]; dose 0.01 mg/kg p.o.): 76.5** %
Nc1c2c(nc3ccccc13)CCCC2 [compound B, 9-amino-1,2,3,4-tetrahydro-acridine, reference compound]	24.1%	–	inhibition in vivo at 1 mg/kg ([1]; dose 1 mg/kg p.o.): 54.9%
CCCC1(CCC)C(=O)N=C2CCCCN21 [compound 15, 3,3-dipropyl-5,6,7,8-tetrahydroimidazo[1,2-a]pyridin-2(3H)-one]	–	–	inhibition in vivo at 1 mg/kg ([1]; dose 1 mg/kg p.o.): 61.5%
CN1C=NC(Cc2ccccc2)(Cc2ccccc2)C1=O [compound 16, 4,4-dibenzyl-1-methyl-5-oxo-4,5-dihydroimidazol]	73.3%	–	–
O=C1N=C2CCCCN2C1(C1CCCCC1)C1CCCCC1 [compound 12, 3,3-dicyclohexyl-5,6,7,8-tetrahydroimidazo[1,2-a]-pyridin-2(3H)-one]	53.5%	218 to 220 °C	–

Molecule	inhibition in vivo at 0.01 mg/kg ([1]; dose 0.01 mg/kg p.o.)	melting point	also measured
O=C1N=C2N=CC=CN2C1(Cc1cccs1)Cc1cccs1 [compound 8, 3,3-bis(2-thienylmethyl)imidazo[1,2-a]pyrimidin-2(3H)-one]	58.9%	192 °C (dec.)	–
COc1cc2c(cc1OC)C(=O)C(CC1CCN(Cc3ccccc3)CC1)C2 (racemic) [compound C, (R,S)-1-benzyl-4-(5,6-dimethoxy-1-indanon-2-yl)-methylpiperidine, reference compound]	12.5%	–	inhibition in vivo at 1 mg/kg ([1]; dose 1 mg/kg p.o.): 24.7%
N#Cc1ccc(CC2(Cc3ccc(C#N)cc3)C(=O)N=C3SC=CN32)cc1 [compound 5, 5,5-bis(4-cyanobenzyl)imidazo[2,1-b]thiazol-6(5H)-one]	49.6%	264 to 267 °C	–
O=C1N=C2C=CC=CN2C1Cc1ccccc1 (centres unmarked) [compound 14, 3-benzylimidazo[1,2-a]pyridin-2(3H)-one]	53.6%	182 °C (dec.)	–
O=C1N=C2C=CC=CN2C12Cc1cc3nsnc3cc1C2 [compound 23, spiro[imidazo[1,2-a]pyridin-2(3H)-one-3,2′-((1,2,5-thiadiazo)[4,5-c]indan)]]	–	–	Inhibitory rate (%) ([1]; dose 0.01 mg/kg p.o.): 88.2** %
O=C1N=C2CCCCN2C12Cc1ccccc1C2 [compound 33, spiro[5,6,7,8-tetrahydroimidazo[1,2-a]pyridin-2(3H)-one-3,2′-indan]]	–	–	Inhibitory rate (%) ([1]; dose 0.01 mg/kg p.o.): 66.1** %
O=C1N=C2SC=CN2C1(Cc1ccc(F)cc1)Cc1ccc(F)cc1 [compound 1, 5,5-bis(4-fluorobenzyl)imidazo[2,1-b]thiazol-6(5H)-one]	–	–	inhibition in vivo at 1 mg/kg ([1]; dose 1 mg/kg p.o.): 56.1%
O=C1N=C2N=CC=CN2C1(Cc1ccccc1)Cc1ccccc1 [compound 3, 3,3-dibenzylimidazo[1,2-a]pyrimidin-2(3H)-one]	60.3%	> 300 °C	–
O=C1N=C2N=CC=CN2C12Cc1ccccc1C2 [compound 25, spiro[imidazo[1,2-a]pyrimidin-2(3H)-one-3,2′-indan]]	–	–	Inhibitory rate (%) ([1]; dose 1 mg/kg p.o.): 78.3* %
O=C1N=C2C(OCc3ccccc3)=CC=CN2C12CC=CC2 [compound 29, spiro[8-benzyloxyimidazo[1,2-a]pyridin-2(3H)-one-3,1′-(3′-cyclopentene)]]	–	–	Inhibitory rate (%) ([1]; dose 1 mg/kg p.o.): 87.7** %
O=C1N(c2ccccc2)c2ccccc2C1(Cc1ccncc1)Cc1ccncc1 [compound A, 3,3-bis(4-pyridylmethyl)-1-phenylindolin-2-one, reference compound]	8.8%	–	inhibition in vivo at 1 mg/kg ([1]; dose 1 mg/kg p.o.): 20.9%
O=C1N=C2C=CC=CN2C12Cc1ccc3ccccc3c1C2 (centres unmarked) [compound 27, spiro[imidazo[1,2-a]pyridin-2(3H)-one-3,2′-benzo[e]-indan]]	–	–	Inhibitory rate (%) ([1]; dose 1 mg/kg p.o.): 64.9** %
O=C1N=C2C=CC=CN2C12Cc1cc3ccccc3cc1C2 [compound 11, spiro[imidazo[1,2-a]pyridin-2(3H)-one-3,2′-benzo[f]-indan]]	–	–	Inhibitory rate (%) ([1]; dose 0.01 mg/kg p.o.): 80.4** %
Oc1nc2ccccn2c1Cc1ccc2ccccc2c1 [compound 10, 2-hydroxy-3-(2-naphtylmethyl)imidazo[1,2-a]pyridin]	–	–	Inhibitory rate (%) ([1]; dose 0.01 mg/kg p.o.): 40.8* %
spiro[imidazo[2,1-a]isoquinolin-2(3H)-one-3,21-(1,2,5-thiadiazo)[4,5-c]indan)] [compound 24]	–	–	Inhibitory rate (%) ([1]; dose 0.01 mg/kg p.o.): 97.1** %
O=C1N=C2C=CC=CN2C12Cc1ccc(I)cc1C2 (centres unmarked) [compound 20, spiro[imidazo[1,2-a]pyridin-2(3H)-one-3,2′-(5′-iodoindan)]]	–	–	Inhibitory rate (%) ([1]; dose 1 mg/kg p.o.): 72.4** %
O=C1N=C2C=CC=CN2C12Cc1cccc(F)c1C2 (centres unmarked) [compound 18, spiro[imidazo[1,2-a]pyridin-2(3H)-one-3,2′-(4′-fluoroindan)]]	–	–	Inhibitory rate (%) ([1]; dose 0.01 mg/kg p.o.): 90.3** %
O=C1N=C2CCCCN2C12Cc1cc3ccccc3cc1C2 [compound 32, spiro[5,6,7,8-tetrahydroimidazo[1,2-a]pyridin-2(3H)-one-3,2′-benzo[f]indan]]	–	–	Inhibitory rate (%) ([1]; dose 0.01 mg/kg p.o.): 61.4* %
